Measurements from patent publication US8940310B2, “Methods of treatment using TLR7 and/or TLR9 inhibitors” (Dynavax Technologies Corporation, priority 2010, dated 2015).
pIC50: −log10 of the molar value. [I] = hypoxanthine (inosine)

Biological target: T1, TLR9 (Homo sapiens, UniProt Q9NR96)
T1 construct: the primary human PDCs were thus stimulated with HSV-1 (4 MOI) or influenza (2 MOI); endogenous in cells; host or cells: primary human plasmacytoid dendritic cells from blood donors
T1 sequence (Q9NR96 26-1032): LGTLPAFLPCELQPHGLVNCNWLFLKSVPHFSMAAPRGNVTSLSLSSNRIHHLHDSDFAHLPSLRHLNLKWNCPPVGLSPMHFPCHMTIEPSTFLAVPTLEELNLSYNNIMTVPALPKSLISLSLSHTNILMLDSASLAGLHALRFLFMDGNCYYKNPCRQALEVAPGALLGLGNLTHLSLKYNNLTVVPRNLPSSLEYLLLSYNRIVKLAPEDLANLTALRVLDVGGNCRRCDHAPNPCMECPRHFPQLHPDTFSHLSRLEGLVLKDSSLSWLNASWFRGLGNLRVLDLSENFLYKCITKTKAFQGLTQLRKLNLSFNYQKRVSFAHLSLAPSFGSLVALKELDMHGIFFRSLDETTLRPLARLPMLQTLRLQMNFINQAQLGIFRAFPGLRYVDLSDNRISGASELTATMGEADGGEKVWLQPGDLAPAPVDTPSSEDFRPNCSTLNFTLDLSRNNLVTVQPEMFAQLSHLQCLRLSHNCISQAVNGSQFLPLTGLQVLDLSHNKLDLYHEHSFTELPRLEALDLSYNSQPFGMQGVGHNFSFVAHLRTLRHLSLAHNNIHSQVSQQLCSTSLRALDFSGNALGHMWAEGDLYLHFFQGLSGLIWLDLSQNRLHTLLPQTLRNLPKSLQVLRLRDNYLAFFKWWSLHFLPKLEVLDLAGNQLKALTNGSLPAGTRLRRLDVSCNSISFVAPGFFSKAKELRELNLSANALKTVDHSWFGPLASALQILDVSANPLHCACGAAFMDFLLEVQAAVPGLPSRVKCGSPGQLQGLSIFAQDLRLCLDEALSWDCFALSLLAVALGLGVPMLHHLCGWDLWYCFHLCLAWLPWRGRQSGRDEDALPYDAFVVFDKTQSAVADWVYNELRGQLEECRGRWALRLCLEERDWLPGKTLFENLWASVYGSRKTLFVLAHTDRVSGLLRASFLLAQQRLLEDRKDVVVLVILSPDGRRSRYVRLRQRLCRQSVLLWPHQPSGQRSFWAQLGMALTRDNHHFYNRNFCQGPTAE
Test: Human PDC stimulated with HSV-1 (TLR9 ligand), IFN-α
Format: cell-based
Conditions: TLR9L HSV
Excerpt: Human PDCs infected with herpes simplex virus type 1 (HSV-1 KOS strain) respond by producing IFN-α and this response is dependent on TLR-9 signaling. Human PDCs infected with influenza virus (FLU H1N1 strain, A/PR/8/34 from a patient in Puerto Rico 1934; See ATCC catalog VR-95) also respond by producing IFN-α, however, this response is dependent on TLR-7 signaling and independent of TLR-9. The effect of IRPs on innate immune response cytokine production by infected cells was examined. In a dose-dependent manner, the primary human PDCs were thus stimulated with HSV-1 (4 MOI) or influenza (2 MOI), either alone or in the presence of the tested IRPs. At 24 hours, supernatants were collected and cytokine levels, IFN-alpha, were measured by immunoassay.
Human PDCs from 16-18 donors were purified and infected with influenza virus (strain PR/8) or HSV-1. HSV was used at 4 MOI, while the influenza virus was used at 2 MOI. The amount of IFN-α produced by the cells was measured and compared to the amount of virus used for infection.
To further investigate the effectiveness of IRPs on TLR7 and TLR9 activation, various IRPs or control samples were assayed for immunoregulatory activity on human PDCs as described in Example 8.

In the case of “5′-TGC TCC TGG AGI GGT TGT-3′ (DNA TGCTCCTGGAGNGGTTGT; DNA, [I] at 12, backbone and methylation of C not given here) [SEQ ID NO:73]”, the pIC50 was 7.60 and the IC90 was 99 nM.
